# Assay results published in patent US12611406B2, “Oxopiperazine derivatives for the treatment of cancer” (Inthera Bioscience AG, priority 2020, dated 2026).
# “Also recorded” adds a separate entry of the source.
# Tests used:
# LNCaP cells = assay: Cell cycle distribution with siRNA-mediated knock-down of Rb and p53; assay type: cell-based; settings: LNCaP treated with Rb/p53 siRNA, 24 h
# Method: Top panel: Cell cycle distribution in LNCap cells treated with siRNA (2 bars on the right) in comparison to control LNCaP cells without siRNA treatment (2 bars in the middle), in the absence (−) or presence (+) of Compound 1 for 24 h at the indicated concentration. For comparison, DU-145 cells harboring a combined Rb1 and p53 loss-of-function are included (2 bars on the left). Lower panel: Western blot analysis according to the same experimental conditions as given for the top panel.
# In in vitro studies using LNCaP PC cells, harboring wild-type Rb and p53 genes, the effect of Compound 1 on the cell cycle was investigated in the absence and presence of siRNA-mediated knock-down of Rb and p53 gene expression. […] This effect is hypothesized to be due to Compound 1-mediated perturbation of the interaction between p300 and DDR factors and subsequent impact on the late cell cycle checkpoints and the DDR leading to cell death.
# 22Rv1 = 22Rv1 prostate cancer CDX mouse model; assay type: in vivo
# Text: Left panel: Tumor growth curves. Right panel: Body weight development. The respective dosing regimen is indicated as bars below the x-axis. QD: once daily treatment; po: per os.
# Left panel: Tumor growth curves. Right panel: Body weight development. The dosing regimen is indicated as dots below the curves. BID: twice daily treatment. QW: once weekly treatment. p.o.: per oral.
# NCI-H660 cells represent a rather far advanced PC type in which not only the tumor suppressor functions of Rb1 and p53 have been lost (see Table 1). Furthermore, the cells already have developed a small cell phenotype characteristic of advanced treatment-resistant PC. In contrast, 22Rv1 tumor cells that are wild-type for Rb1 and p53 pathways were less sensitive to Compound 1 treatment when a once weekly dosing scheme was used.
# (§1) Values larger than 100% indicate tumor regression.
# [1] = 5-day daily intravenous repeated-dose TK study in CD-1 mice (mesylate salt); assay type: in vivo; settings: for half-life: both sexes, CD-1, mouse, blood, intravenous
# Method: The aim of the present study was to explore the TK of Compound 1 after 5 days of once daily intravenous dosing in male and female CD-1 mice, with a subsequent recovery phase of 9 days.
# Compound 1 (mesylate salt) was administered once daily for 5 consecutive days by intravenous injection to groups of CD-1 mice (n=8/sex/group) at dose levels of 0 (control), 0.5, 2, 6, or 12 mg/kg/day. A suspension of 0.5% methylcellulose (w/v) in sterile water was used as vehicle. Blood samples were collected for hematology, clinical chemistry (Day 6 and 15), and pharmacokinetics evaluation.
# [2] = 14-day daily oral repeated-dose DRF study in cynomolgus monkeys (mesylate salt); assay type: in vivo; settings: for half-life / AUC(0-t) / Cmax / Tmax: cynomolgus monkey, plasma
# Method: The objective of this exploratory study was to assess the TK profile of Compound 1 when repeatedly administered via the oral route to cynomolgus monkeys.
# Compound 1 (mesylate salt) administration in this dose-range-finder study was intended once daily for up to 14 consecutive days by oral gavage to groups of naïve cynomolgus monkeys (n=1/sex/group) at dose levels of 0.5, 4, 8, or 12 mg Compound 1 per kg bodyweight and day, using a staggered approach. The vehicle was 0.5% Methylcellulose in water. The actual dose levels and durations of dosing were flexibly adapted according to signs of tolerability and PK: Group 1 animals were dosed at 0.5 mg/kg/day for 10 days and after a 4-day washout phase for additional 12 days at 4 mg/kg/days; Group 2 animals at 12 mg/kg/day for 11 days; Group 3 animals at 8 mg/kg for 10 (males) or 9 (females) days; and Group 4 animals at 8 mg/kg for 5 days, respectively, as summarized in Table 10.
# The animals in the final group 4 were dosed orally once daily or 5 days with 8 mg/kg Compound 1 before a 9-day recovery phase was given.
# DU-145 = DU-145 CDX mouse model; assay type: in vivo; settings: once weekly 60 mg/kg/day as 30 mg/kg BID, 4 weeks; p <0.001
# Text: as §1
# DU-145 cells = assay: Annexin V staining; assay type: cell-based
# AR = assay: AR-driven gene expression in LNCaP cells stimulated with DHT; assay type: cell-based; settings: PSA (KLK3), TMPRSS2, SLC45A3; DHT induction; 30, 300, 3000 nM
# Method: Compound 1 concentrations from left to right: 30, 300, 3000 nM. Basal level indicates expression level in cells with no DHT treatment.
# In SCLC, the expression of p300 and CBP is associated with poor prognosis (see Gao et al, Int J Clin Exp Pathol. 2014 Jan. 15; 7(2):760-7) with high p300 and CBP expressions being independent prognostic markers of poor overall survival (OS) for resected SCLC patients.
# [3] = both sexes, po, 0.5 mg/kg, 0.5 mg/kg (Gr. 1), Day 1
# [4] = both sexes, po, 8 mg/kg, 8 mg/kg (Gr. 3), Day 1
# [5] = both sexes, po, 8 mg/kg, 8 mg/kg (Gr. 3), Day 5
# [6] = both sexes, po, 8 mg/kg, 8 mg/kg (Gr. 4), Day 1
# [7] = both sexes, po, 8 mg/kg, 8 mg/kg (Gr. 4), Day 5
# [8] = both sexes, po, 12 mg/kg, 12 mg/kg (Gr. 2), Day 1
# [9] = both sexes, po, 12 mg/kg, 12 mg/kg (Gr. 2), Day 7
# [10] = po, 0.5 mg/kg, 0.5 mg/kg (Gr. 1), Day 7
# [11] = po, 4 mg/kg, 4 mg/kg (Gr. 1), Day 1
# [12] = po, 4 mg/kg, 4 mg/kg (Gr. 1), Day 5
# [13] = po, 4 mg/kg, 4 mg/kg (Gr. 1), Day 11
smiles,measurement,setting,value
"CC(C)C[C@@H]1NCCN([C@@H](CC(C)C)C(=O)N2CCC3(C[C@@H]2C)OCC(CN2CCCC2)CO3)C1=O (stereo partly drawn) [Compound 1, (S)-3-isobutyl-1-((S)-4-methyl-1-((S)-8-methyl-3-(pyrrolidin-1-ylmethyl)-1,5-dioxa-9-azaspiro[5.5]undecan-9-yl)-1-oxopentan-2-yl)piperazin-2-one]",cell cycle response,LNCaP cells,increase of cells in the S-phase
same,tumor response,22Rv1; 3 mg/kg oral,cytostatic growth inhibition
same,"anti-tumor activity, every other week vs daily","22Rv1; 3 mg/kg oral, 7d on/7d off compared to same dose daily",almost the same anti-tumor growth activity
same,Tumor growth inhibition,22Rv1; 30 mg/kg BID once weekly (60 mg/kg weekly),approx. 50%
same,Tumor growth inhibition,"22Rv1; once weekly 60 mg/kg/day as 30 mg/kg BID, 5 weeks, p 0.001",47% (0.001)/**5 weeks
same,group mean initial blood concentration (CO),"[1]; 0.5 mg/kg/day, Day 1",111 ng/mL
same,CO,"[1]; 0.5 mg/kg/day, Day 5, female",112 ng/mL
same,CO,"[1]; 0.5 mg/kg/day, Day 5, male",191 ng/mL
same,group mean initial blood concentration (CO),"[1]; 2 mg/kg/day, Day 1",386 ng/mL
same,CO,"[1]; 2 mg/kg/day, Day 5, female",391 ng/mL
same,CO,"[1]; 2 mg/kg/day, Day 5, male",275 ng/mL
same,group mean initial blood concentration (CO),"[1]; 6 mg/kg/day, Day 1",1257 ng/mL
same,CO,"[1]; 6 mg/kg/day, Day 5, female",641 ng/mL
same,CO,"[1]; 6 mg/kg/day, Day 5, male",778 ng/mL
same,group mean initial blood concentration (CO),"[1]; 12 mg/kg/day, Day 1",1725 ng/mL
same,CO,"[1]; 12 mg/kg/day, Day 5, female",1548 ng/mL
same,CO,"[1]; 12 mg/kg/day, Day 5, male",1531 ng/mL
same,tolerability,"[1]; 0.5, 2, 6, and 12 mg/kg/day intravenously once daily for 5 consecutive days",well tolerated; also recorded: well-tolerated
same,half-life,"[1]; all groups, Day 1, read-out: terminal half-life",1.1 to 1.3 h
same,half-life,"[1]; over the dose interval, Day 5, read-out: elimination half-life",1.1 to 1.9 h
same,half-life,"[2]; both sexes, oral, in general, all groups, read-out: mean terminal plasma elimination half-lives",4.4 to 8.4 h
same,AUC(0-t),[2]; [3],0.7 ng·h/mL
same,Cmax,[2]; [3],0.24 ng/mL
same,Tmax,[2]; [3],1.5 h
same,half-life,"[2]; both sexes, po, 0.5 mg/kg, 0.5 mg/kg (Gr. 1), Day 1, read-out: T1/2 (converted)",4.9 h
same,half-life,"[2]; both sexes, po, 4 mg/kg, 4 mg/kg (Gr. 1), Day 11, read-out: T1/2 (converted)",5.1 h
same,AUC(0-t),[2]; [4],64.9 ng·h/mL
same,Cmax,[2]; [4],21.7 ng/mL
same,Tmax,[2]; [4],1 h
same,half-life,"[2]; both sexes, po, 8 mg/kg, 8 mg/kg (Gr. 3), Day 1, read-out: T1/2 (converted)",4.6 h
same,AUC(0-t),[2]; [5],92 ng·h/mL
same,Cmax,[2]; [5],18.8 ng/mL
same,Tmax,[2]; [5],1 h
same,half-life,"[2]; both sexes, po, 8 mg/kg, 8 mg/kg (Gr. 3), Day 5, read-out: T1/2 (converted)",6.5 h
same,AUC(0-t),[2]; [6],30.4 ng·h/mL
same,Cmax,[2]; [6],8.95 ng/mL
same,Tmax,[2]; [6],1 h
same,half-life,"[2]; both sexes, po, 8 mg/kg, 8 mg/kg (Gr. 4), Day 1, read-out: T1/2 (converted)",5.4 h
same,AUC(0-t),[2]; [7],51.3 ng·h/mL
same,Cmax,[2]; [7],13.8 ng/mL
same,Tmax,[2]; [7],1.5 h
same,half-life,"[2]; both sexes, po, 8 mg/kg, 8 mg/kg (Gr. 4), Day 5, read-out: T1/2 (converted)",6.4 h
same,AUC(0-t),[2]; [8],86 ng·h/mL
same,Cmax,[2]; [8],31.2 ng/mL
same,Tmax,[2]; [8],1 h
same,half-life,"[2]; both sexes, po, 12 mg/kg, 12 mg/kg (Gr. 2), Day 1, read-out: T1/2 (converted)",6.6 h
same,AUC(0-t),[2]; [9],214 ng·h/mL
same,Cmax,[2]; [9],48.8 ng/mL
same,Tmax,[2]; [9],1 h
same,half-life,"[2]; both sexes, po, 12 mg/kg, 12 mg/kg (Gr. 2), Day 7, read-out: T1/2 (converted)",7.4 h
same,Tmax,"[2]; both sexes, po, after oral administration, all groups",1 to 1.5 h
same,AUC(0-t),[2]; [10],1.2 ng·h/mL
same,Cmax,[2]; [10],0.18 ng/mL
same,Tmax,[2]; [10],1 h
same,half-life,"[2]; po, 0.5 mg/kg, 0.5 mg/kg (Gr. 1), Day 7, read-out: T1/2 (converted)",18.5 h
same,AUC(0-t),[2]; [11],10.5 ng·h/mL
same,Cmax,[2]; [11],2.95 ng/mL
same,Tmax,[2]; [11],1 h
same,half-life,"[2]; po, 4 mg/kg, 4 mg/kg (Gr. 1), Day 1, read-out: T1/2 (converted)",4.4 h
same,AUC(0-t),[2]; [12],9.5 ng·h/mL
same,Cmax,[2]; [12],2.3 ng/mL
same,Tmax,[2]; [12],1 h
same,half-life,"[2]; po, 4 mg/kg, 4 mg/kg (Gr. 1), Day 5, read-out: T1/2 (converted)",8.4 h
same,AUC(0-t),[2]; [13],10.9 ng·h/mL
same,Cmax,[2]; [13],3.06 ng/mL
same,Tmax,[2]; [13],1 h
same,tolerability,[2]; daily 0.5 and 4 mg/kg/day for 10 or 12 days,tolerated
same,tolerability,[2]; daily 8 and 12 mg/kg/day for 10 days,not tolerated
same,Tumor growth inhibition,DU-145,72 (<0.001)/**4 weeks %
same,Annexin V staining,DU-145 cells,induction of apoptosis
same,AR target gene expression,AR,effectively downregulates target genes
